The text below walks through data of patent publication US12504371B2, “System and method of dynamic micro-optical coherence tomography for mapping cellular functions” (The General Hospital Corporation, priority 2020, dated 2025).

Experiment [1] relates to freshly excised murine liver. The experiment can be described thus: d-μOCT imaging of freshly excised murine liver in blebbistatin. The experiment is classed as cell-based. The settings on record: 30 μM blebbistatin, t=40 minutes vs t=0; Red 0-0.08 Hz, Green 3.98-20 Hz. The source says:
d-μOCT enables high contrast, subcellular, cross-sectional motility imaging of intact human and animal tissues ex vivo. d-μOCT data (FIGS. 7, 9-16) were obtained using a μOCT benchtop system microscope that employs a supercontinuum-illuminated, common path, spectral domain OCT (SDOCT) system to obtain cross-sectional images with a resolution of 2 μm×2 μm (lateral)×1 μm (axial). The depth of focus was 300 μm, extended by annular apodization of the sample arm's objective lens. Images were acquired at an A-line (depth resolved reflectivity profile) rate of 20 KHz and spanned 1 mm laterally. All tissues samples were imaged fresh in culture media (10% FBS/DMEM+1% pen-strep) at 25° C. Two scan modes were used: 1) N=1000 images (512 A-lines/image) acquired sequentially over a period of 25 seconds (FIG. 8, scan mode 1) or 2) N=1000 A-lines acquired sequentially at each lateral scan point (FIG. 8, scan mode 2). Following local elastic unwarping to remove bulk motion caused by evaporation or vibration, a power spectrum estimate (periodogram) was computed on a pixel-per-pixel basis using Welch's method and frequency normalization. For scan mode 1, to represent the data in a single image, low (−0-0.1 Hz), middle (−0.5-0.7 Hz) and high (−4-20 Hz) frequency component images were merged into the RGB channels of a 24-bit color image. […]

The test system of experiment [2] is MC38 murine tumor. The experiment is described as follows: d-μOCT and CC3 IHC of freshly excised MC38 tumor treated with a drug-containing IMD. The experiment is classed as in vivo. The settings on record: IMD containing doxorubicin, 6 hrs; mid frequency Blue 0.47-0.63 Hz. As for the experimental part:
Dynamic-μOCT has been applied to human biopsies and chemotherapy-treated tumors grown in mouse models. In human biopsies, it is possible to use d-μOCT to distinguish microscopic features (e.g. cell nuclei, organelles, and cell membranes), cellular structures (e.g. squamous, glandular, inflammatory cells), and different cell types that were not evident in corresponding regular μOCT images. Ex vivo experiments were also performed using tumors grown with human cell lines. Custom microdevices containing small amounts of chemotherapeutic drugs were inserted into the tumors. For example, effects of intra-tumoral apoptosis were distinguished with d-μOCT and confirmed with histology images stained with cleaved caspase-3 (CC3), an apoptosis marker.
Panel (B) is from the same location in the sample. d-μOCT color codes: Red 0-0.08 Hz, Blue 0.47-0.63 Hz, Green 3.98-20 Hz. Bars, 200 μm.
d-μOCT enables high contrast, subcellular, cross-sectional motility imaging of intact human and animal tissues ex vivo. d-μOCT data (FIGS. 7, 9-16) were obtained using a μOCT benchtop system microscope that employs a supercontinuum-illuminated, common path, spectral domain OCT (SDOCT) system to obtain cross-sectional images with a resolution of 2 μm×2 μm (lateral)×1 μm (axial). The depth of focus was 300 μm, extended by annular apodization of the sample arm's objective lens. […]

Structures are written as SMILES.

Take `Cc1ccc2c(c1)C(=O)C1(O)CCN(c3ccccc3)C1=N2` (centres unmarked) [blebbistatin]: the “change in d-μOCT intracellular motion frequency content” value in experiment [1] was “dramatic reduction in high frequency (green) and increase in low frequency (red) intracellular motion”.
Turning to `COc1cccc2c1C(=O)c1c(O)c3c(c(O)c1C2=O)C[C@@](O)(C(=O)CO)C[C@@H]3O[C@H]1C[C@H](N)[C@H](O)[C@H](C)O1` [doxorubicin], in experiment [2], the “d-μOCT frequency content compared with cleaved caspase-3 (CC3) IHC” value is given as “diffuse region of mid-frequency content (arrow) that mirrors cleaved caspase-3 (CC3) IHC”.
